The target of one assay is MLKL (full length) (Homo sapiens (Human), UniProt Q8NB16). The assay is described as follows: KINOMEscan binding assay, MLKL (full length). The conditions noted are these: Table 36. On the procedure:
Kinase assays. For most assays, kinase-tagged T7 phage strains were grown in parallel in 24-well blocks in an E. coli host derived from the BL21 strain. E. coli were grown to log-phase and infected with T7 phage from a frozen stock (multiplicity of infection=0.4) and incubated with shaking at 32° C. until lysis (90-150 minutes).
The Hill Slope was set to −1.

Assay [1] deals with U937 human histiocytic leukemia cell line. Nature of the assay: Cellular assay: inhibition of TSQ induced necroptosis (CellTitre-Glo). The conditions noted are these: Homo sapiens, U-937; U937 cells, TSQ cocktail, 48 hours, Table 38; read-out: Inhibition of TSQ-induced necroptosis (IC50 cell-based assay). The gist of the method:
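U937 cells (20,000/well) pre-dosed with compound (10-point, 1:3 from 36 μM, 0.3% DMSO), then TSQ (hTNF-Fc 100 ng/ml, Smac mimetic 500 nM, Q-VD-OPh 10 μM) for 48 h at 37 °C. Viability by CellTiter-Glo luminescence, normalised to DMSO (100%) and DMSO+TSQ (0%); IC50 from 4-parameter fit.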

The subject of another assay is U937 cells. Nature of the assay: Counter screen: cell viability without TSQ cocktail (off-target effect). The settings on record: Homo sapiens, U-937, Table 38, read-out: Off-target effect (IC50 cell-based assay). Also noted: species or system human. On the procedure:
Counter screen: In parallel, all compounds were tested for their ability to affect cell viability. The same U937 cells were treated with compound in DMSO without the TSQ cocktail. This counter screen enabled evaluation of off-target effects. In this case, cell viability was measured by CelltiterGlo.

For the next assay, the target named is endogenous MLKL in U937 (Homo sapiens (Human), UniProt Q8NB16). Nature of the assay: Degradation assay: degradation of endogenous MLKL in human cells (Western blot). The conditions noted are these: 24 h incubation, read-out: Degradation of endogenous MLKL in U937 (DC50 cell-based assay in μM).
The target of another assay is MLKL (Homo sapiens (Human), UniProt Q8NB16). Nature of the assay: Binding to MLKL (KD), in vitro. The conditions noted are these: in vitro assays.
Chain of MLKL (Q8NB16 whole entry): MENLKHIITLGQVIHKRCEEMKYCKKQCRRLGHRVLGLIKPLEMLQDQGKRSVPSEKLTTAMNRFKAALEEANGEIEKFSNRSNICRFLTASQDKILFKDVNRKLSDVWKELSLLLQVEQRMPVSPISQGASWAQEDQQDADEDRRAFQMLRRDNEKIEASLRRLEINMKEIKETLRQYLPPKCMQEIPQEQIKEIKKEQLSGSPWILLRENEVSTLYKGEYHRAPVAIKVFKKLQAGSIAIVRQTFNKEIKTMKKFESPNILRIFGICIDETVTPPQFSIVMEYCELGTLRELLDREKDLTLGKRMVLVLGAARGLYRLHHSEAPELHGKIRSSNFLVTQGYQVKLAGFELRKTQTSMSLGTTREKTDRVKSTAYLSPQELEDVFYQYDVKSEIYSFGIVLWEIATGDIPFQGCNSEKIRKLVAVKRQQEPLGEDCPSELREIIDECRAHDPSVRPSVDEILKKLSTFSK

Chain of MLKL (full length) (Q8NB16 whole entry): as above
Chain of endogenous MLKL in U937 (Q8NB16 whole entry): as above

Consider `Cc1ncsc1-c1ccc(CNC(=O)[C@@H]2C[C@@H](O)CN2C(=O)[C@@H](NC(=O)CN2CCC(Oc3ccc(Nc4[nH]nc(-c5ccc(NS(=O)(=O)C(F)F)c(O[C@@H](C)c6ccc(F)cc6)c5)c4C(N)=O)nc3)CC2)C(C)(C)C)cc1` [Compound 1050, 3-[4-(difluoromethanesulfonamido)-3-[(1S)-1-(4-fluorophenyl)ethoxy]phenyl]-5-[(5-{[1-({[(2S)-1-[(2S,4R)-4-hydroxy-2-({[4-(4-methyl-1,3-thiazol-5-yl)phenyl]methyl}carbamoyl)pyrrolidin-1-yl]-3,3-dimethyl-1-oxobutan-2-yl]carbamoyl}methyl)piperidin-4-yl]oxy}pyridin-2-yl)amino]-1H-pyrazole-4-carboxamide], for which, at MLKL (full length), the Kd fell in the range of 10 to 1000 nM. The IC50 in assay [1] was 1000 to 10000 nM; in the assay on U937 cells, more than 10000 nM. Besides, the DC50 on endogenous MLKL in U937 is less than 1 µM.

`Cc1ncsc1-c1ccc(CNC(=O)[C@@H]2C[C@@H](O)CN2C(=O)[C@@H](NC(=O)CCCCOC(=O)c2ccc(Nc3[nH]nc(-c4ccc(NS(=O)(=O)C(F)F)c(O[C@@H](C)c5ccc(F)cc5)c4)c3C(N)=O)nc2)C(C)(C)C)cc1` [Compound 1051, 4-{[(2S)-1-[(2S,4R)-4-hydroxy-2-({[4-(4-methyl-1,3-thiazol-5-yl)phenyl]methyl}carbamoyl)pyrrolidin-1-yl]-3,3-dimethyl-1-oxobutan-2-yl]carbamoyl}butyl 6-({4-carbamoyl-3-[4-(difluoromethanesulfonamido)-3-[(1S)-1-(4-fluorophenyl)ethoxy]phenyl]-1H-pyrazol-5-yl}amino)pyridine-3-carboxylate] returned a Kd on MLKL (full length) of 10 to 1000 nM. The IC50 is 1000 to 10000 nM in assay [1] and more than 10000 nM in the assay with U937 cells. The DC50 at endogenous MLKL in U937 was 1 to 10 µM.

Turning to `Cc1ncsc1-c1ccc(CNC(=O)[C@@H]2C[C@@H](O)CN2C(=O)[C@@H](NC(=O)CCCCOC(=O)c2ccc(Nc3[nH]nc(-c4ccc(NS(=O)(=O)C(F)F)c(F)c4)c3C(N)=O)nc2)C(C)(C)C)cc1` [Compound 1053], at MLKL (full length), the Kd is less than 10 nM. In addition, the IC50 in assay [1] was 1000 to 10000 nM; in the assay on U937 cells, more than 10000 nM. Also, the DC50 on endogenous MLKL in U937 was in the range of 1 to 10 µM.

In the case of `CCS(=O)(=O)Nc1ccc(-c2n[nH]c(Nc3ccc(C(=O)OCCCCCC(=O)N[C@H](C(=O)N4C[C@H](O)C[C@H]4C(=O)NCc4ccc(-c5scnc5C)cc4)C(C)(C)C)cn3)c2C(N)=O)cc1O[C@@H](C)c1ccc(F)cc1` [Compound 1057, 5-{[(2S)-1-[(2S,4R)-4-hydroxy-2-({[4-(4-methyl-1,3-thiazol-5-yl)phenyl]methyl}carbamoyl)pyrrolidin-1-yl]-3,3-dimethyl-1-oxobutan-2-yl]carbamoyl}pentyl 6-[(4-carbamoyl-3-{4-ethanesulfonamido-3-[(1S)-1-(4-fluorophenyl)ethoxy]phenyl}-1H-pyrazol-5-yl)amino]pyridine-3-carboxylate], the Kd at MLKL (full length) is less than 10 nM. Besides, the values for the IC50 (in assay [1]; in the assay on U937 cells) were less than 1000 nM and more than 10000 nM, respectively. Besides, the DC50 on endogenous MLKL in U937 was less than 1 µM.

In the case of `CCS(=O)(=O)Nc1ccc(-c2n[nH]c(Nc3ccc(C(=O)OCCCCCCC(=O)N[C@H](C(=O)N4C[C@H](O)C[C@H]4C(=O)NCc4ccc(-c5scnc5C)cc4)C(C)(C)C)cn3)c2C(N)=O)cc1O[C@@H](C)c1ccc(F)cc1` [Compound 1058, 6-{[(2S)-1-[(2S,4R)-4-hydroxy-2-({[4-(4-methyl-1,3-thiazol-5-yl)phenyl]methyl}carbamoyl)pyrrolidin-1-yl]-3,3-dimethyl-1-oxobutan-2-yl]carbamoyl}hexyl 6-[(4-carbamoyl-3-{4-ethanesulfonamido-3-[(1S)-1-(4-fluorophenyl)ethoxy]phenyl}-1H-pyrazol-5-yl)amino]pyridine-3-carboxylate], the Kd on MLKL (full length) was in the range of 10 to 1000 nM. Moreover, the IC50 is less than 1000 nM in assay [1] and more than 10000 nM in the assay on U937 cells. At endogenous MLKL in U937, the DC50 was less than 1 µM.

As for `CCS(=O)(=O)Nc1ccc(-c2n[nH]c(Nc3ccc(C(=O)OCCCCC(=O)N[C@H](C(=O)N4C[C@H](O)C[C@H]4C(=O)NCc4ccc(-c5scnc5C)cc4)C(C)(C)C)cn3)c2C#N)cc1O[C@@H](C)c1ccc(F)cc1` [Compound 1061, 4-{[(2S)-1-[(2S,4R)-4-hydroxy-2-({[4-(4-methyl-1,3-thiazol-5-yl)phenyl]methyl}carbamoyl)pyrrolidin-1-yl]-3,3-dimethyl-1-oxobutan-2-yl]carbamoyl}butyl 6-[(4-cyano-3-{4-ethanesulfonamido-3-[(1S)-1-(4-fluorophenyl)ethoxy]phenyl}-1H-pyrazol-5-yl)amino]pyridine-3-carboxylate], the Kd on MLKL was approximately 2000 nM.

Source of the values: patent US20250074891A1 (Anaxis Pharma Pty Ltd., priority 2021, published 2025).
